{"source": "patent US20240335569A1", "about": "“FIBROBLAST ACTIVATION PROTEIN INHIBITORS AND USE THEREOF” (3 B PHARMACEUTICALS GMBH, priority 2021, published 2024)", "key": {"Human recombinant FAP [1]": {"target": "T1, Human recombinant FAP (Homo sapiens (Human), UniProt Q12884)", "assay": "Surface plasmon resonance assay (Biacore T200, SCK)", "format": "binding", "settings": "for HL [min] (Biacore): SPR dissociation half-life", "outline": "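Anti-FAP antibody amine-coupled to CM5 chip (7000 RU), human recombinant FAP captured at 20 μg/mL; compounds run in single-cycle kinetics at 25° C in HBST with 0.1% DMSO, top concentration 500 nM. Reference-cell and buffer-run drift subtraction; kon, koff, KD, t1/2 from 1:1 Langmuir fit, reported as pKD.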"}, "HT-29 cells": {"test_system": "HT-29 cells", "assay": "Stability in the presence of tumor cells (HT-29), FAP IC50 of supernatants", "format": "in vitro ADME, human", "settings": "for pIC50 (incubation in cell medium w/o HT-29) / pIC50 (incubation in the presence of HT-29 cells) / IC50: 10 μM compound, supernatant tested on recombinant human FAP", "experimental": "The stability of exemplary compounds was further assessed in the presence of a variety of human cell lines from different tissue origins. […] Compounds were diluted in DMEM without phenol red (Biochrom, #F0475) including 2 mM L-glutamine. 400 μL of a 10 μM solution of the test compound was incubated for 24 hours at 37° C. and 5% CO2 in the presence of cells as well as in control wells (without cells) of the same 24-well plate. IC50/pIC50 determination of the supernatants was performed as described above."}, "786-O": {"test_system": "786-O", "assay": "Stability in the presence of human cell lines (786-O)", "format": "in vitro ADME", "settings": "Kidney, 24 hours", "method": "(§1) Residual activity was calculated as follows: […]"}, "A549": {"test_system": "A549", "assay": "Stability in the presence of human cell lines (A549)", "format": "in vitro ADME", "settings": "A549, Lung; 24 hours", "method": "as §1"}, "AsPC-1": {"test_system": "AsPC-1", "assay": "Stability in the presence of human cell lines (AsPC-1)", "format": "in vitro ADME", "settings": "AsPC-1, Pancreas; 24 hours", "method": "as §1"}, "C4-2": {"test_system": "C4-2", "assay": "Stability in the presence of human cell lines (C4-2)", "format": "in vitro ADME", "settings": "C4-2, Prostate; 24 hours", "method": "as §1"}, "HEC-265": {"test_system": "HEC-265", "assay": "Stability in the presence of human cell lines (HEC-265)", "format": "in vitro ADME", "settings": "HEC-265, Endometrium; 24 hours", "method": "as §1"}, "HT-1376": {"test_system": "HT-1376", "assay": "Stability in the presence of human cell lines (HT-1376)", "format": "in vitro ADME", "settings": "HT-1376, Bladder; 24 hours", "method": "as §1"}, "K-562": {"test_system": "K-562", "assay": "Stability in the presence of human cell lines (K-562)", "format": "in vitro ADME", "settings": "K-562, Blood; 24 hours", "method": "as §1"}, "MDA-MB-436": {"test_system": "MDA-MB-436", "assay": "Stability in the presence of human cell lines (MDA-MB-436)", "format": "in vitro ADME", "settings": "MDA-MB-436, Breast; 24 hours", "method": "as §1"}, "SCOV-3": {"test_system": "SCOV-3", "settings": "SCOV-3, Ovarian; 24 hours", "method": "Cells were cultured in McCoys's 5A modified medium (Biochrom, #F1015) including 10% fetal bovine serum (FBS), 2 mM L-glutamine, 100 U/ml penicillin and 100 μg/mL streptomycin (growth medium). […] 1 mL of the cell suspension were seeded in 24-well plates and incubated overnight at 37° C. and 5% CO2. The next day, cells were washed twice and growth medium was exchanged against DMEM without phenol red (Biochrom, #F0475) including 2 mM L-glutamine. Test compound was diluted in DMEM without phenol red (Biochrom, #F0475) including 2 mM L-glutamine. 400 μL of a 10 μM solution of the test compound was incubated for 24 hours at 37° C. and 5% CO2 in the presence of cells as well as in control wells (without cells) of the same 24-well plate.\n25 μL of a 30 μM substrate solution, diluted in assay buffer, was added. All solutions were equilibrated at 37° C. prior to use. […] RFU/sec was calculated by SoftMax Pro software and plotted against test compound concentration. Four parameter logistic (4PL) curve fitting and IC50/pIC50 calculations were performed using GraphPad Prism 9.1 software. Residual activity was calculated as follows: […]\nThe stability of exemplary compounds was further assessed in the presence of a variety of human cell lines from different tissue origins. […] Residual activity was calculated as follows: […]"}, "U2-OS": {"test_system": "U2-OS", "assay": "Stability in the presence of human cell lines (U2-OS)", "format": "in vitro ADME", "settings": "Sarcoma (Bone), 24 hours", "method": "as §1"}, "U87MG": {"test_system": "U87MG", "assay": "Stability in the presence of human cell lines (U87MG)", "format": "in vitro ADME", "settings": "Brain, 24 hours", "method": "as §1"}, "WI-38": {"test_system": "WI-38", "assay": "Stability in the presence of human cell lines (WI-38)", "format": "in vitro ADME", "settings": "WI-38, Fibroblast (Lung); 24 hours", "method": "as §1"}, "WM-266-4": {"test_system": "WM-266-4", "assay": "Stability in the presence of human cell lines (WM-266-4)", "format": "in vitro ADME", "settings": "WM-266-4, Skin; 24 hours", "method": "as §1"}, "[2]": {"target": "HEK-FAP cells (HEK293 cells engineered to express the human FAP) (Homo sapiens (Human), UniProt Q12884)", "assay": "LigandTracer assay with 111In-labeled compounds", "format": "binding", "settings": "111In-labeled compound", "method": "HEK293 cells (human embryonic kidney cells) were engineered to express the human FAP. […] Cell concentrations were adjusted to 3×10^5 mL^−1, and 3.000 μL of the suspension was dispensed into a poly-lysine-coated, clear cell dish (10 cm). Approximately 24 hours after re-seeding, the medium was replaced by assay medium (Ham's medium with 20 mM HEPES) containing 1% FCS. The dish was placed in the LigandTracer® device and a baseline measurement was obtained using the LigandTracer® Control software (version 2.4). […] To determine the dissociation rate (kd) the cells were washed and subsequently incubated with fresh assay medium for several hours."}, "[3]": {"target": "FAP-expressing human WI-38 fibroblasts (Homo sapiens (Human), UniProt Q12884)", "sequence (Q12884 whole entry)": "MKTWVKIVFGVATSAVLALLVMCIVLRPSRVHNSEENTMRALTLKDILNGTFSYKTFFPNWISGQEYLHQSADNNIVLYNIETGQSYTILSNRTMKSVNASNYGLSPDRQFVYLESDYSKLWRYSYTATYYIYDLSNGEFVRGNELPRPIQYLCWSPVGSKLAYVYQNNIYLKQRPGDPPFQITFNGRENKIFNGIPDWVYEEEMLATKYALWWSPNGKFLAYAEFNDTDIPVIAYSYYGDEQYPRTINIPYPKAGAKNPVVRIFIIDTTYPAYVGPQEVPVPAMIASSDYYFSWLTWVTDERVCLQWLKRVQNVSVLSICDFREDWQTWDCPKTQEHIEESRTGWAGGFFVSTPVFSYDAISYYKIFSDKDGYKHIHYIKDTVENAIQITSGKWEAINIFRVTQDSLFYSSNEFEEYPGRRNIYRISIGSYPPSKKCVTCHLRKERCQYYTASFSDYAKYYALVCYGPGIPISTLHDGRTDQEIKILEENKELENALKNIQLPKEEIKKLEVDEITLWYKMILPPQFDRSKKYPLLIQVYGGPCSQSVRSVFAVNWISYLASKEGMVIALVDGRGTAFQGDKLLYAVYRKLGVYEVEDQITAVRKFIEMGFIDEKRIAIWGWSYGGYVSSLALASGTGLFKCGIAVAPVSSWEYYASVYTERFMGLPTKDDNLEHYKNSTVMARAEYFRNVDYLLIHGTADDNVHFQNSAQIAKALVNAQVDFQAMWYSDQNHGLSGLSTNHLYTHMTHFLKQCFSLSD", "assay": "FACS binding assay (competitive, Cy5-labeled 3BP-2935)", "settings": "FAP-expressing WI-38 fibroblasts", "outline": "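Cells diluted to 100.000 cells per ml in FACS buffer, washed twice and analysed by flow cytometry. Median Cy5 fluorescence was plotted against test compound concentration, and pIC50 was derived by four-parameter logistic fit.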"}, "Human recombinant FAP [4]": {"target": "T1, Human recombinant FAP", "assay": "FAP protease activity assay (human), FRET-based", "format": "biochemical", "settings": "recombinant human FAP, FRET protease activity; read-out: pIC50 (Activity) (converted)", "method": "In order to determine the inhibitory activity a FRET-based FAP protease activity assay was established.\nFour parameter logistic (4PL) curve fitting and pIC50 calculations were performed using ActivityBase software (IDBS)."}, "[5]": {"settings": "24 hours at 37° C. in control wells without cells"}, "[6]": {"settings": "24 hours at 37° C. with HT-29 cells"}}, "note": "Like-named read-outs stand apart in the source and are kept apart here.", "data": [{"compound": "N#C[C@@H]1CC(F)(F)CN1C(=O)CNC(=O)c1ccnc2ccc(OCCCN3CCN(C(=O)CN4CCN(CC(=O)O)CCN(CC(=O)O)CCN(CC(=O)O)CC4)CC3)cc12", "note": "[Compound 3BP-2929, reference compound]", "values": [{"measurement": "HL [min] (Biacore)", "setting": "Human recombinant FAP [1]", "value": 85, "unit": "min"}, {"measurement": "pIC50 (incubation in cell medium w/o HT-29)", "setting": "HT-29 cells; [5]", "value": 8.7}, {"measurement": "pIC50 (incubation in the presence of HT-29 cells)", "setting": "HT-29 cells; [6]", "value": 7.9}, {"measurement": "Residual Stability (%)", "setting": "HT-29 cells; HT-29, Intestine, 24 hours", "value": 14, "unit": "%"}, {"measurement": "stability in the presence of HT-29 cells (in words)", "setting": "HT-29 cells; HT-29 cells", "value": "unstable"}, {"measurement": "Residual activity after incubation with HT-29 cells for 24 hours (%)", "setting": "HT-29 cells; HT-29 cells, 24 hours", "value": 16, "unit": "%"}, {"measurement": "Residual Stability (%)", "setting": "786-O", "value": 85, "unit": "%"}, {"measurement": "Residual Stability (%)", "setting": "A549", "value": 20, "unit": "%"}, {"measurement": "Residual Stability (%)", "setting": "AsPC-1", "value": 35, "unit": "%"}, {"measurement": "Residual Stability (%)", "setting": "C4-2", "value": 19, "unit": "%"}, {"measurement": "Residual Stability (%)", "setting": "HEC-265", "value": 65, "unit": "%"}, {"measurement": "Residual Stability (%)", "setting": "HT-1376", "value": 10, "unit": "%"}, {"measurement": "Residual Stability (%)", "setting": "K-562", "value": 70, "unit": "%"}, {"measurement": "Residual Stability (%)", "setting": "MDA-MB-436", "value": 17, "unit": "%"}, {"measurement": "Residual Stability (%)", "setting": "SCOV-3", "value": 4, "unit": "%"}, {"measurement": "Residual Stability (%)", "setting": "U2-OS", "value": 30, "unit": "%"}, {"measurement": "Residual Stability (%)", "setting": "U87MG", "value": 45, "unit": "%"}, {"measurement": "Residual Stability (%)", "setting": "WI-38", "value": 26, "unit": "%"}, {"measurement": "Residual Stability (%)", "setting": "WM-266-4", "value": 70, "unit": "%"}, {"measurement": "HL (half-life)", "setting": "[2]", "value": "4.6 ± 2.37", "unit": "h"}]}, {"compound": "O=C(O)CN1CCN(CC(=O)O)CCN(CC(=O)NCCCS(=O)(=O)c2ccc(-c3ccc4nccc(C(=O)NCC(=O)N5CCC[C@H]5C(=O)c5nc6ccccc6o5)c4c3)cc2)CCN(CC(=O)O)CC1", "note": "[Compound 3BP-3581, (S)-2,2′,2″-(10-(2-(3-(4-(4-(2-(2-(benzo[d]oxazole-2-carbonyl)pyrrolidin-1-yl)-2-oxoethylcarbamoyl)quinolin-6-yl)phenylsulfonyl)propylamino)-2-oxoethyl)-1,4,7,10-tetraazacyclododecane-1,4,7-triyl)triacetic Acid]", "values": [{"measurement": "IC50", "setting": "[3]", "value": 1.58, "unit": "nM"}, {"measurement": "IC50", "setting": "Human recombinant FAP [4]", "value": 1.26, "unit": "nM"}, {"measurement": "HL [min] (Biacore)", "setting": "Human recombinant FAP [1]", "value": 120, "unit": "min"}, {"measurement": "Kd", "setting": "Human recombinant FAP [1]; SPR, read-out: pKD (Biacore) (converted)", "value": "< 0.0316", "unit": "nM"}, {"measurement": "IC50", "setting": "HT-29 cells; 24 hours at 37° C. with HT-29 cells, read-out: pIC50 (incubation in the presence of HT-29 cells) (converted)", "value": 2, "unit": "nM"}, {"measurement": "IC50", "setting": "HT-29 cells; HT-29, 24 hours at 37° C. in control wells without cells, read-out: pIC50 (incubation in cell medium w/o HT-29) (converted)", "value": 2, "unit": "nM"}, {"measurement": "Residual activity after incubation with HT-29 cells for 24 hours (%)", "setting": "HT-29 cells; HT-29 cells, 24 hours", "value": ">95", "unit": "%"}, {"measurement": "HL (half-life)", "setting": "[2]", "value": "5.75 ± 3.63", "unit": "h"}, {"measurement": "Kd", "setting": "[2]", "value": 0.0794, "unit": "nM"}]}, {"compound": "O=C(O)CN1CCN(CC(=O)O)CCN(CC(=O)N2CCN(CCCOc3ccc4nccc(C(=O)NCC(=O)N5CCC[C@H]5C(=O)c5nc6ccccc6o5)c4c3)CC2)CCN(CC(=O)O)CC1", "note": "[Compound 3BP-4808]", "values": [{"measurement": "pKD (Biacore)", "setting": "Human recombinant FAP [1]; SPR", "value": ">10.5"}, {"measurement": "HL [min] (Biacore)", "setting": "Human recombinant FAP [1]", "value": ">150", "unit": "min"}, {"measurement": "pIC50 (incubation in cell medium w/o HT-29)", "setting": "HT-29 cells; [5]", "value": 8.6}, {"measurement": "pIC50 (incubation in the presence of HT-29 cells)", "setting": "HT-29 cells; [6]", "value": 8.6}, {"measurement": "Residual activity after incubation with HT-29 cells for 24 hours (%)", "setting": "HT-29 cells; HT-29 cells, 24 hours", "value": ">95", "unit": "%"}, {"measurement": "HL (half-life)", "setting": "[2]", "value": "0.333 ± 0.083", "unit": "h"}]}]}
